Blank lines part the entries; values can stand above or below the molecule they belong to.
What was measured:
Assay in all cases: in-line probing
[1] = tested on: 65 pnuC (RNA, riboswitch) GGAAAAUCUAUAGAGCGUUGCGUCCGAAAGUCUAAACAGACACGGCUCUUUAAAAACAAAAGGAGAAG; details: 20 mM Mg2+, 100 mM K+, 50 mM Tris-HCl pH 8.3, ~23 °C
[2] = tested on: M1 (G35U) (RNA, riboswitch) GGAAAAUCUAUAGAGCUUUGCGUCCGAAAGUCUAAACAGACACGGCUCUUUAAAAACAAAAGGAGAAG; details: 20 mM Mg2+, 100 mM K+; 50 mM Tris-HCl pH 8.3, ~23 °C; tested at 1 mM
[3] = tested on: 85 pnuC (RNA, riboswitch) GGAGGAGAAGCGGUUCAAAUCGAAAAUCUAUAGAGCGUUGCGUCCGAAAGUCUAAACAGACACGGCUCUUUAAAAACAAAAGGAGAAG; details: 20 mM Mg2+, 100 mM K+; 50 mM Tris-HCl pH 8.3, ~23 °C; tested at 0.1 and 1 mM
[4] = tested on: M2 (A60U) (RNA, riboswitch) GGAAAAUCUAUAGAGCGUUGCGUCCGAAAGUCUAAACAGACUCGGCUCUUUAAAAACAAAAGGAGAAG; details: 20 mM Mg2+, 100 mM K+; 50 mM Tris-HCl pH 8.3, ~23 °C; tested at 1 mM

binding [3]: no
Structure (SMILES): Cc1cc2nc3c(=O)[nH]c(=O)nc-3n(C[C@H](O)[C@H](O)[C@H](O)COP(=O)(O)O)c2cc1C

KD ([1]; apparent): ~ 100 µM
Structure (SMILES): NC(=O)c1ccc[n+]([C@@H]2O[C@H](COP(=O)([O-])OP(=O)(O)OC[C@H]3O[C@@H](n4cnc5c(N)ncnc54)[C@H](O)[C@@H]3O)[C@@H](O)[C@H]2O)c1

binding [3]: no
Structure (SMILES): Cc1ncc(C[n+]2csc(CCOP(=O)(O)OP(=O)(O)O)c2C)c(N)n1

Continued, molecule first:

Structure (SMILES): O=C(O)c1cccnc1
binding ([1]; tested at 0.1 and 1 mM): no

Structure (SMILES): NC(=O)c1ccc[n+]([C@@H]2O[C@H](COP(=O)(O)O)[C@@H](O)[C@H]2O)c1
binding [2]: no
binding [3]: yes
binding [4]: no

— PMC7749635 (2021)
